Measurements as given in PubChem BioAssay AID336 (DTP/NCI, 2004).
Several values for one entry are separate records, joined by “and”; a condition that tells them apart may be missing. Identical values can stand only once. Inconclusive results and toxic doses are left out. *1 amine or outer side, *2 acyl side, *3 side chain or, on linkers, in order; H or OH if unused. Where a SMILES comes first, the peptide text is derived from it. Bridges are numbered along the chain shown (N, C = ends). Roman numbers before positions name the chains, in order. [ ]: non-standard residue; d: D form. Actinocin(9to1) = Cc1c2oc3c(C)ccc(C(=O)[*:1])c3nc-2c(C(=O)[*:2])c(N)c1=O; aThr = C[C@H](O)[C@H](N)C(=O)O; NMeV = CN[C@H](C(=O)O)C(C)C; Sar = CNCC(=O)O

Test system: BDF1 mice, P388/VCR leukemia ip, median survival T/C
Assay: NCI In Vivo Anticancer Drug Screen. Data for tumor model P388 Leukemia resistant to Vincristine; NSC 67574 (intraperitoneal) in B6D2F1 (BDF1) mice
Conditions: endpoint: median survival time, higher = longer survival
Description: The antitumor activity of compounds was measured in mice bearing transplantable tumors. Survival or tumor size were measured and the results are expressed as the measurement made in the treated group (T) divided by the measurement made in the vehicle treated control group (C). The tumor model used in this assay is P388 Leukemia resistant to Vincristine; NSC 67574 (intraperitoneal) in B6D2F1 (BDF1) mice

[1] = dose: 10.0 mg/kg/injection, schedule: Q01DX010 (ip), vehicle: saline
[2] = dose: 20.0 mg/kg/injection, schedule: Q01DX010 (ip), vehicle: saline
[3] = dose: 40.0 mg/kg/injection, schedule: Q01DX010 (ip), vehicle: saline
[4] = dose: 25.0 mg/kg/injection, schedule: Q01DX010 (ip), vehicle: saline
[5] = dose: 50.0 mg/kg/injection, schedule: Q01DX010 (ip), vehicle: saline
[6] = dose: 5.0 mg/kg/injection, schedule: Q01DX010 (ip), vehicle: saline
[7] = dose: 45.0 mg/kg/injection, schedule: Q01DX010 (ip), vehicle: saline
[8] = dose: 500.0 mg/kg/injection, schedule: Q01DX010 (ip), vehicle: saline
[9] = dose: 90.0 mg/kg/injection, schedule: Q01DX010 (ip), vehicle: saline

With COc1cccc2c1C(=O)c1c(O)c3c(c(O)c1C2=O)C[C@@](O)(C(=O)CO)C[C@@H]3OC1CC(N)C(O)C(C)O1 (some centres undefined) the T/C (dose: 1.44 mg/kg/injection, schedule: Q04DX003 (ip), vehicle: saline) was 172 % of control, the T/C (dose: 1.44 mg/kg/injection, schedule: Q04DX003 (ip), vehicle: water) was 168 % of control and the T/C (dose: 2.4 mg/kg/injection, schedule: Q04DX003 (ip), vehicle: saline) was 188 % of control. For the same molecule, the T/C (dose: 2.4 mg/kg/injection, schedule: Q04DX003 (ip), vehicle: water) was 159 % of control and 200 % of control, the T/C (dose: 4.0 mg/kg/injection, schedule: Q04DX003 (ip), vehicle: saline) was 169 % of control and the T/C (dose: 4.0 mg/kg/injection, schedule: Q04DX003 (ip), vehicle: water) was 155 % of control and 168 % of control. For the same molecule, the T/C (dose: 6.67 mg/kg/injection, schedule: Q04DX003 (ip), vehicle: saline) was 182 % of control and the T/C (dose: 6.67 mg/kg/injection, schedule: Q04DX003 (ip), vehicle: water) was 100 % of control.

With Cn1c(N)nc2nc[nH]c2c1=S the T/C [1] was 92 % of control and 100 % of control, the T/C [2] was 96 % of control and 107 % of control and the T/C [3] was 100 % of control and 123 % of control. For the same molecule, the T/C (dose: 80.0 mg/kg/injection, schedule: Q01DX010 (ip), vehicle: saline) was 96 % of control.

CSc1ncnc2nc[nH]c12 was tested, and the T/C [4] was 104 % of control and 107 % of control, the T/C [5] was 103 % of control and 116 % of control and the T/C (dose: 100.0 mg/kg/injection, schedule: Q01DX010 (ip), vehicle: saline) was 112 % of control and 115 % of control. The T/C (dose: 200.0 mg/kg/injection, schedule: Q01DX010 (ip), vehicle: saline) was 111 % of control and 112 % of control.

For CN(C)c1ccc(/C=C/c2ccnc3ccccc23)cc1, the T/C [6] was 92 % of control and 104 % of control, the T/C [1] was 88 % of control and 96 % of control and the T/C [2] was 104 % of control. For the same molecule, the T/C [3] was 96 % of control and 100 % of control.

CNc1nc(Nc2ccc(C3=NCCN3)cc2)nc(Nc2ccc(C3=NCCN3)cc2)n1 was tested, and the T/C [2] was 116 % of control, the T/C (dose: 30.0 mg/kg/injection, schedule: Q01DX010 (ip), vehicle: saline) was 108 % of control and the T/C [7] was 91 % of control.

For COc1cc([C@@H]2c3cc4c(cc3[C@@H](OC3OC5CO[C@@H](c6cccs6)OC5C(O)C3O)[C@H]3COC(=O)[C@H]23)OCO4)cc(OC)c1O (some centres undefined), the T/C (dose: 5.4 mg/kg/injection, schedule: Q04DX003 (ip), vehicle: clinical formulation) was 153 % of control and the T/C (dose: 15.0 mg/kg/injection, schedule: Q04DX003 (ip), vehicle: clinical formulation) was 172 % of control.

In the case of c1ccc(CCSc2ncnc3nc[nH]c23)cc1, the T/C (dose: 62.5 mg/kg/injection, schedule: Q01DX010 (ip), vehicle: saline) is reported as 88 % of control, the T/C (dose: 125.0 mg/kg/injection, schedule: Q01DX010 (ip), vehicle: saline) is reported as 88 % of control and the T/C (dose: 250.0 mg/kg/injection, schedule: Q01DX010 (ip), vehicle: saline) is reported as 96 % of control. The T/C [8] was 107 % of control.

In the case of CO[C@H](C(=O)[C@@H](O)[C@@H](C)O)[C@@H]1Cc2cc3cc(OC4CC(OC5CC(O)C(O)C(C)O5)C(O)C(C)O4)c(C)c(O)c3c(O)c2C(=O)[C@H]1OC1CC(OC2CC(OC3CC(C)(O)C(O)C(C)O3)C(O)C(C)O2)C(O)C(C)O1 (some centres undefined), the T/C (dose: 216.0 micrograms/kg/injection, schedule: Q01DX005 (ip), vehicle: water) is reported as 97 % of control, the T/C (dose: 360.0 micrograms/kg/injection, schedule: Q01DX005 (ip), vehicle: water) is reported as 100 % of control and the T/C (dose: 600.0 micrograms/kg/injection, schedule: Q01DX005 (ip), vehicle: water) is reported as 95 % of control. For the same molecule, the T/C (dose: 1000.0 micrograms/kg/injection, schedule: Q01DX005 (ip), vehicle: water) was 95 % of control.

With O=C(Nc1cccc(C(=O)Nc2ccc(C3=NCCN3)cc2)c1)c1ccc(C2=NCCN2)cc1 the T/C (dose: 54.0 mg/kg/injection, schedule: Q01DX010 (ip), vehicle: saline) was 104 % of control.

For CS(=O)(=O)OCCCCOS(C)(=O)=O, the T/C (dose: 6.25 mg/kg/injection, schedule: Q01DX010 (ip), vehicle: saline) was 88 % of control and 96 % of control, the T/C [4] was 92 % of control and the T/C [5] was 96 % of control.

For O=c1[nH]c(=O)n(C2CC(O)C(CO)O2)cc1F (centres undefined), the T/C [2] was 112 % of control and the T/C [3] was 154 % of control.

For S=P(N1CCOCC1)(N1CC1)N1CC1, the T/C (dose: 2.5 mg/kg/injection, schedule: Q01DX010 (ip), vehicle: saline) was 104 % of control and 109 % of control, the T/C [6] was 100 % of control and 109 % of control and the T/C [1] was 100 % of control and 122 % of control. The T/C [2] was 86 % of control and 90 % of control.

In the case of Cc1c2oc3c(C)ccc(C(=O)N[C@@H]4C(=O)N[C@H](C(C)C)C(=O)N5CCC[C@H]5C(=O)N(C)CC(=O)N(C)[C@@H](C(C)C)C(=O)O[C@H]4C)c3nc-2c(C(=O)N[C@@H]2C(=O)N[C@H](C(C)C)C(=O)N3CCC[C@H]3C(=O)N(C)CC(=O)N(C)[C@@H](C(C)C)C(=O)O[C@H]2C)c(N)c1=O (I: [aThr][dV]P[Sar][NMeV] / II: [aThr][dV]P[Sar][NMeV]; ester I:1-I:C, II:1-II:C; linker I:N-II:N via Actinocin(9to1)), the T/C (dose: 12.5 micrograms/kg/injection, schedule: Q01DX010 (ip), vehicle: other) is reported as 108 % of control and 112 % of control, the T/C (dose: 25.0 micrograms/kg/injection, schedule: Q01DX010 (ip), vehicle: other) is reported as 124 % of control and the T/C (dose: 108.0 micrograms/kg/injection, schedule: Q04DX003 (ip), vehicle: saline + alcohol) is reported as 103 % of control. The T/C (dose: 180.0 micrograms/kg/injection, schedule: Q04DX003 (ip), vehicle: saline + alcohol) was 110 % of control, the T/C (dose: 300.0 micrograms/kg/injection, schedule: Q04DX003 (ip), vehicle: saline + alcohol) was 106 % of control and the T/C (dose: 500.0 micrograms/kg/injection, schedule: Q04DX003 (ip), vehicle: saline + alcohol) was 93 % of control.

COC(=O)Nc1nc2ccc(C(=O)c3cccs3)cc2[nH]1 was tested, and the T/C (dose: 21.6 mg/kg/injection, schedule: Q04DX003 (ip), vehicle: other) was 151 % of control, the T/C (dose: 36.0 mg/kg/injection, schedule: Q04DX003 (ip), vehicle: other) was 242 % of control and the T/C (dose: 60.0 mg/kg/injection, schedule: Q04DX003 (ip), vehicle: other) was 189 % of control.

O=C(Nc1ccc(C2=NCCN2)cc1)Nc1cccc(NC(=O)Nc2ccc(C3=NCCN3)cc2)c1 was tested, and the T/C (dose: 60.0 mg/kg/injection, schedule: Q01DX010 (ip), vehicle: saline) was 179 % of control and 183 % of control, the T/C (dose: 120.0 mg/kg/injection, schedule: Q01DX010 (ip), vehicle: saline) was 241 % of control and 279 % of control and the T/C (dose: 480.0 mg/kg/injection, schedule: Q01DX010 (ip), vehicle: saline) was 108 % of control and 116 % of control.

O=C(Nc1cccc(NC(=O)Nc2cccc(C3=NCCN3)c2)c1)Nc1cccc(C2=NCCN2)c1 was tested, and the T/C [3] was 154 % of control and the T/C [9] was 118 % of control.

For CC(CN1CC(=O)NC(=O)C1)N1CC(=O)NC(=O)C1 (centres undefined), the T/C (dose: 108.0 mg/kg/injection, schedule: Q04DX003 (ip), vehicle: Klucel (hydroxypropylcellulose) (HPC)) was 120 % of control, the T/C (dose: 240.0 mg/kg/injection, schedule: Q04DX003 (ip), vehicle: Klucel (hydroxypropylcellulose) (HPC)) was 151 % of control and the T/C (dose: 300.0 mg/kg/injection, schedule: Q04DX003 (ip), vehicle: alkali diluted with saline) was 174 % of control. For the same molecule, the T/C (dose: 400.0 mg/kg/injection, schedule: Q04DX003 (ip), vehicle: Klucel (hydroxypropylcellulose) (HPC)) was 180 % of control and the T/C (dose: 500.0 mg/kg/injection, schedule: Q04DX003 (ip), vehicle: alkali diluted with saline) was 109 % of control.

In the case of CC(=O)O[C@H]1C(=O)[C@@]2(C)[C@H]([C@H](OC(=O)c3ccccc3)[C@]3(O)C[C@H](OC(=O)[C@H](O)[C@@H](NC(=O)c4ccccc4)c4ccccc4)C(C)=C1C3(C)C)[C@]1(OC(C)=O)CO[C@@H]1C[C@@H]2O, the T/C (dose: 21.6 mg/kg/injection, schedule: Q04DX003 (ip), vehicle: Klucel (hydroxypropylcellulose) (HPC)) is reported as 98 % of control, the T/C (dose: 36.0 mg/kg/injection, schedule: Q04DX003 (ip), vehicle: Klucel (hydroxypropylcellulose) (HPC)) is reported as 93 % of control and the T/C (dose: 60.0 mg/kg/injection, schedule: Q04DX003 (ip), vehicle: Klucel (hydroxypropylcellulose) (HPC)) is reported as 87 % of control.

For CC1CCOS(=O)O1 (centres undefined), the T/C [1] was 96 % of control, the T/C [2] was 103 % of control and the T/C [3] was 103 % of control.

O[C@H](CN1CC1)[C@@H](O)CN1CC1 was tested, and the T/C (dose: 0.13 mg/kg/injection, schedule: Q01DX010 (ip), vehicle: saline) was 180 % of control and 200 % of control and the T/C (dose: 0.25 mg/kg/injection, schedule: Q01DX010 (ip), vehicle: saline) was 150 % of control and 241 % of control.

For O=C(Nc1ccc(C2=NCCN2)cc1)c1cc(Cl)cc(C(=O)Nc2ccc(C3=NCCN3)cc2)c1, the T/C (dose: 140.0 mg/kg/injection, schedule: Q01DX010 (ip), vehicle: saline) was 100 % of control, the T/C (dose: 210.0 mg/kg/injection, schedule: Q01DX010 (ip), vehicle: saline) was 109 % of control and the T/C (dose: 315.0 mg/kg/injection, schedule: Q01DX010 (ip), vehicle: saline) was 100 % of control.

In the case of COS(C)(=O)=O, the T/C (dose: 12.5 mg/kg/injection, schedule: Q01DX010 (ip), vehicle: saline) is reported as 123 % of control and the T/C [4] is reported as 103 % of control.

In the case of O=C(Nc1ccc(C2=NCCN2)cc1)c1ccc(C(=O)Nc2ccc(C3=NCCN3)cc2)c(F)c1, the T/C (dose: 22.5 mg/kg/injection, schedule: Q01DX010 (ip), vehicle: saline) is reported as 100 % of control, the T/C [7] is reported as 107 % of control and the T/C [9] is reported as 123 % of control.

For CCOC(N)=O, the T/C [8] was 107 % of control and 119 % of control.
